DBAASP
≈ marks a conversion by molar mass, not a printed value. Each block holds one compound with its values, some of them ahead of it.

Columns and labels:
Assay in all cases: ≥ marks a high value that may be exact or a test limit, other limits are often not marked, values filed in µg/mL are converted to µM
[1] = system: Bacillus licheniformis X39
[2] = system: Candida albicans ATCC 10231
[3] = system: Enterococcus faecalis 981
[4] = system: Escherichia coli ATCC 25922
[5] = system: Psychrobacter faecalis X29
[6] = system: Rhodococcus rhodochrous X15
Serratia rubidaea X01 = system: Serratia rubidaea X01
[7] = system: Staphylococcus aureus ATCC 25923
[8] = system: Staphylococcus carnosus KHS
Acinetobacter sp. = system: Acinetobacter sp.
[9] = system: Escherichia coli NCTC 10418
[10] = system: Escherichia coli NCTC 8007
Klebsiella aerogenes = system: Klebsiella aerogenes
Klebsiella sp. = system: Klebsiella sp.
Proteus mirabilis = system: Proteus mirabilis
Providencia stuartii = system: Providencia stuartii
[11] = system: Staphylococcus aureus NCTC 10571
[12] = system: Acinetobacter baumannii ATCC 17978
Bacillus subtilis C626 = system: Bacillus subtilis C626
[13] = system: Candida albicans ATCC 64550
[14] = system: Enterobacter cloacae 218R
[15] = system: Enterococcus faecalis ATCC 29212
[16] = system: Enterococcus faecalis W61950
[17] = system: Enterococcus faecalis f43559
[18] = system: Enterococcus faecium mic80
[19] = system: Enterococcus faecium t62764
[20] = system: Escherichia coli ESBL 63103
[21] = system: Escherichia coli ESBL 64771
Escherichia coli O157:H7 = system: Escherichia coli O157:H7
[22] = system: Klebsiella pneumoniae ESBL 61962
[23] = system: Klebsiella pneumoniae ESBL 63575
[24] = system: Pseudomonas aeruginosa 198
[25] = system: Pseudomonas aeruginosa 213
Pseudomonas aeruginosa 9 = system: Pseudomonas aeruginosa 9
[26] = system: Pseudomonas aeruginosa H1001
[27] = system: Pseudomonas aeruginosa H1027
[28] = system: Pseudomonas aeruginosa H1030
[29] = system: Pseudomonas aeruginosa LES400
[30] = system: Pseudomonas aeruginosa PAO1 H103
[31] = system: Staphylococcus aureus C622
[32] = system: Staphylococcus aureus C623
[33] = system: Stenotrophomonas maltophilia ATCC 13637
[34] = system: Aspergillus niger ATCC 16404
Bacillus cereus = system: Bacillus cereus
[35] = system: Candida glabrata ATCC 15126
[36] = system: Enterococcus faecalis PCM 2673
[37] = system: Escherichia coli ATCC 23506
Escherichia coli = system: Escherichia coli
[38] = system: Klebsiella pneumoniae ATCC 700603
Leuconostoc lactis = system: Leuconostoc lactis
Listeria innocua = system: Listeria innocua
Micrococcus luteus = system: Micrococcus luteus
Pasteurella multocida = system: Pasteurella multocida
[39] = system: Pseudomonas aeruginosa ATCC 9027
[40] = system: Staphylococcus aureus ATCC 9144
Staphylococcus aureus = system: Staphylococcus aureus
[41] = system: Staphylococcus epidermidis
[42] = system: Streptococcus pneumoniae ATCC 49619
Streptococcus uberis = system: Streptococcus uberis

- MIC [1]: 9 µM (≈ 23.3 µg/mL)
- MIC [2]: 150 µM (≈ 388 µg/mL)
- MIC [3]: 19 µM (≈ 49.1 µg/mL)
- MIC [4]: 150 µM (≈ 388 µg/mL)
- MIC [5]: 19 µM (≈ 49.1 µg/mL)
- MIC [6]: 1.2 µM (≈ 3.1 µg/mL)
- MIC (Serratia rubidaea X01): 19 µM (≈ 49.1 µg/mL)
- MIC [7]: 9 µM (≈ 23.3 µg/mL)
- MIC [8]: 9 µM (≈ 23.3 µg/mL)
SMILES: CC[C@H](C)[C@H](NC(=O)[C@H](CCCCN)NC(=O)[C@@H]1CCCN1C(=O)[C@H](CC(C)C)NC(=O)[C@H](Cc1ccccc1)NC(=O)[C@H](CC(N)=O)NC(=O)[C@H](C)NC(=O)[C@H](C)NC(=O)[C@H](CC(C)C)NC(=O)CNC(=O)[C@H](C)NC(=O)[C@@H](NC(=O)[C@@H](NC(=O)[C@@H]1CCCN1C(=O)[C@H](CC(C)C)NC(=O)[C@@H](N)Cc1ccccc1)[C@@H](C)CC)C(C)C)C(=O)N[C@H](C(=O)N[C@H]1CSSC[C@@H](C(=O)O)NC(=O)[C@H](CCCCN)NC(=O)[C@H](CCCCN)NC(=O)[C@H]([C@@H](C)O)NC(=O)[C@H]([C@@H](C)CC)NC(=O)[C@H](CCCCN)NC1=O)C(C)C [FLPIVAGLAANFLPKIVCKITKKC]

- MIC (Acinetobacter sp.): 0.86 µM (≈ 1.33 µg/mL)
- MIC [9]: ≥ 579 µM
- MIC [10]: ≥ 290 µM
- MIC (Klebsiella aerogenes): ≥ 290 µM
- MIC (Klebsiella sp.): ≥ 290 µM
- MIC (Proteus mirabilis): ≥ 1000 µM
- MIC (Providencia stuartii): ≥ 1000 µM
- MIC [11]: 14 µM (≈ 21.7 µg/mL)
SMILES: CSCC[C@H](NC(=O)[C@H](CC(N)=O)NC(=O)[C@H](CCCN=C(N)N)NC(=O)[C@H](CCC(N)=O)NC(=O)[C@H](Cc1c[nH]c2ccccc12)NC(=O)[C@H](CCC(N)=O)NC(=O)[C@@H](N)Cc1ccccc1)C(=O)N[C@@H](CCCN=C(N)N)C(=O)N[C@@H](CCCCN)C(=O)N[C@H](C(=O)N[C@@H](CCCN=C(N)N)C(=O)O)C(C)C [FQWQRNMRKVR]

- MIC [12]: 5 µM (≈ 7.22 µg/mL)
- MIC (Bacillus subtilis C626): 20 µM (≈ 28.9 µg/mL)
- MIC [13]: ≥ 100 µM
- MIC [14]: 3 µM (≈ 4.33 µg/mL)
- MIC [15]: 12 µM (≈ 17.3 µg/mL)
- MIC [16]: ≥ 99 µM
- MIC [17]: ≥ 49 µM
- MIC [18]: 3.1 µM (≈ 4.48 µg/mL)
- MIC [19]: 1.5 µM (≈ 2.17 µg/mL)
- MIC [20]: 1.5 µM (≈ 2.17 µg/mL)
- MIC [21]: 1.5 µM (≈ 2.17 µg/mL)
- MIC (Escherichia coli O157:H7): 1.25 µM (≈ 1.81 µg/mL)
- MIC [22]: 25 µM (≈ 36.1 µg/mL)
- MIC [23]: 6.2 µM (≈ 8.96 µg/mL)
- MIC [24]: 1.5 µM (≈ 2.17 µg/mL)
- MIC [25]: 3 µM (≈ 4.33 µg/mL)
- MIC (Pseudomonas aeruginosa 9): 5.9 µM (≈ 8.52 µg/mL)
- MIC [26]: 0.554 µM (≈ 0.8 µg/mL)
- MIC [27]: 0.8 µM (≈ 1.16 µg/mL)
- MIC [28]: 3 µM (≈ 4.33 µg/mL)
- MIC [29]: 5.9 µM (≈ 8.52 µg/mL)
- MIC [30]: 0.8 µM (≈ 1.16 µg/mL)
- MIC [7]: 3 µM (≈ 4.33 µg/mL)
- MIC [31]: 5 µM (≈ 7.22 µg/mL)
- MIC [32]: 1.5 µM (≈ 2.17 µg/mL)
- MIC [33]: 0.4 µM (≈ 0.578 µg/mL)
SMILES: CC[C@H](C)[C@H](NC(=O)[C@H](Cc1c[nH]c2ccccc12)NC(=O)[C@H](CCCCN)NC(=O)[C@H](Cc1c[nH]c2ccccc12)NC(=O)[C@H](Cc1c[nH]c2ccccc12)NC(=O)[C@H](CCCNC(=N)N)NC(=O)[C@@H](N)CCCCN)C(=O)N[C@@H](CCCNC(=N)N)C(=O)N[C@@H](Cc1c[nH]c2ccccc12)C(=O)O [KRWWKWIRW]

- MIC [34]: ≥ 158 µM
- MIC (Bacillus cereus): ≥ 61.9 µM
- MIC [2]: 79.2 µM (≈ 128 µg/mL)
- MIC [35]: ≥ 158 µM
- MIC [36]: ≥ 79.2 µM
- MIC [37]: ≥ 79.2 µM
- MIC [4]: 39.6 µM (≈ 64 µg/mL)
- MIC (Escherichia coli): > 61.9 µM
- MIC [38]: 19.8 µM (≈ 32 µg/mL)
- MIC (Leuconostoc lactis): 7.43 µM (≈ 12 µg/mL)
- MIC (Listeria innocua): ≥ 61.9 µM
- MIC (Micrococcus luteus): ≥ 61.9 µM
- MIC (Pasteurella multocida): ≥ 61.9 µM
- MIC [39]: > 158 µM
- MIC [7]: 39.6 µM (≈ 64 µg/mL)
- MIC [40]: ≥ 39.6 µM
- MIC (Staphylococcus aureus): 30.9 µM (≈ 50 µg/mL)
- MIC [41]: ≥ 61.9 µM
- MIC [42]: ≥ 79.2 µM
- MIC (Streptococcus uberis): 30.9 µM (≈ 50 µg/mL)
SMILES: CC[C@H](C)[C@H](NC(=O)CNC(=O)CNC(=O)[C@@H](N)CC(C)C)C(=O)N[C@H](C(=O)N[C@@H](CO)C(=O)N[C@@H](C)C(=O)N[C@H](C(=O)N[C@@H](CCCCN)C(=O)N[C@@H](CCCCN)C(=O)N[C@H](C(=O)N[C@H](C(=O)N[C@@H](CC(=O)O)C(=O)N[C@@H](Cc1ccccc1)C(=O)N[C@@H](CC(C)C)C(=O)NCC(N)=O)C(C)C)[C@@H](C)CC)C(C)C)C(C)C [LGGIVSAVKKIVDFLG]
